From ChEMBL document CHEMBL4808173, “Discovery of Novel Benzimidazole and Indazole Analogues as Tubulin Polymerization Inhibitors with Potent Anticancer Activities” (J Med Chem, 2021)

What was measured:
Format in all cases: functional, cell-based
[1] = system: MCF7; test: Antiproliferative activity against human MCF7 cells assessed as reduction in cell viability measured after 48 hrs by MTT assay; conditions: MCF7, 48 h
[2] = system: A549; test: Antiproliferative activity against human A549 cells assessed as reduction in cell viability measured after 48 hrs by MTT assay; conditions: A549, 48 h
[3] = system: B16-F10; test: Antiproliferative activity against mouse B16-F10 cells assessed as reduction in cell viability measured after 48 hrs by MTT assay; conditions: B16-F10, 48 h
[4] = system: HeLa; test: Antiproliferative activity against human HeLa cells assessed as reduction in cell viability measured after 48 hrs by MTT assay

Row | IC50 [1] [µM] | IC50 [2] [µM] | IC50 [3] [µM] | IC50 [4] [µM] | Structure (SMILES)
1 | > 10 | > 10 | 6.19 | 6.19 | COc1cc(-c2cccc3[nH]c(-c4cccc(C#N)c4)nc23)cc(OC)c1OC
2 | > 10 | > 10 | > 10 | > 10 | COc1cc(-c2ccc3[nH]nc(-c4ccccc4)c3c2)cc(OC)c1OC
3 | 0.168 | 0.231 | 0.443 | 0.443 | COc1cc(-c2ccnc3cc(-c4ccc(C)cc4)nn23)cc([Se]C)c1OC
4 | > 10 | 6.25 | 8.03 | 4.68 | COc1cc(-c2n[nH]c3ccc(-c4cccc(C(=N)NO)c4)cc23)cc(OC)c1OC
5 | 0.176 | 1.01 | 0.631 | 0.981 | COc1cc(-c2cccc3[nH]c(-c4cn(C)c5ccccc45)nc23)cc(OC)c1OC
6 | > 10 | > 10 | > 10 | > 10 | COc1cc(-c2ccc3[nH]nc(-c4cccc(C#N)c4)c3c2)cc(OC)c1OC
7 | 0.349 | 0.36 | 0.662 | 0.662 | COc1cc(-c2ccnc3cc(-c4c[nH]c5ccccc45)nn23)cc([Se]C)c1OC
8 | 0.123 | 0.372 | 0.126 | 0.126 | COc1cc(-c2ccnc3cc(-c4ccc5c(ccn5C)c4)nn23)cc([Se]C)c1OC
9 | 0.313 | 0.224 | 0.856 | 0.856 | COc1cc(-c2ccnc3cc(-c4cn(CO)c5ccccc45)nn23)cc([Se]C)c1OC
10 | 1.05 | 1.03 | 1.41 | 2.07 | COc1cc(-c2n[nH]c3ccc(-c4ccc(C#N)cc4)cc23)cc(OC)c1OC
11 | > 10 | > 10 | > 10 | > 10 | COc1cc(-c2cnc3c(-c4ccc5c(ccn5C)c4)nccn23)cc(OC)c1OC
12 | 1.18 | 1.25 | 3.7 | 3.7 | COc1cc(-c2ccnc3cc(-c4ccc5cnn(C)c5c4)nn23)cc([Se]C)c1OC
13 | 3.16 | > 10 | 7.12 | 7.12 | COc1cc(-c2ccnc3cc(-c4ccccc4)nn23)cc([Se]C)c1OC

The next lines start with the molecule.

Row | Structure (SMILES) | IC50 [1] [µM] | IC50 [2] [µM] | IC50 [3] [µM] | IC50 [4] [µM]
14 | COc1ccc(-c2ccc3[nH]nc(-c4cc(OC)c(OC)c(OC)c4)c3c2)cc1 | 0.037 | 0.191 | 0.161 | 0.132
15 | Cn1ccc2cc(-c3nccn4c(-c5ccc6c(ccn6C)c5)cnc34)ccc21 | > 10 | > 10 | > 10 | > 10
16 | COc1cc(-c2ccc3[nH]nc(-c4cc(OC)c(OC)c(OC)c4)c3c2)cc(OC)c1OC | > 10 | 7.9 | 7.27 | 8.62
17 | COc1cc(-c2ccc3[nH]nc(-c4ccc(C(=N)NO)cc4)c3c2)cc(OC)c1OC | > 10 | > 10 | > 10 | > 10
18 | COc1cc(-c2nccn3c(-c4cc(OC)c(OC)c(OC)c4)cnc23)cc(OC)c1OC | > 10 | > 10 | > 10 | > 10
19 | COc1cc(-c2ccc3[nH]nc(-c4ccc(C)cc4)c3c2)cc(OC)c1OC | > 10 | > 10 | > 10 | > 10
20 | COc1cc(-c2ccc3[nH]nc(-c4ccc5c(ccn5C)c4)c3c2)cc(OC)c1OC | 9.98 | > 10 | 9.26 | 8.03
21 | CCCCn1ccc2c(-c3nc4c(-c5cc(OC)c(OC)c(OC)c5)cccc4[nH]3)cccc21 | > 10 | > 10 | > 10 | > 10
22 | COc1ccc(-c2n[nH]c3ccc(-c4cc(OC)c(OC)c(OC)c4)cc23)cc1 | > 10 | > 10 | > 10 | > 10
23 | COc1cc(-c2cccc3[nH]c(-c4ccc(C(=N)NO)cc4)nc23)cc(OC)c1OC | > 10 | > 10 | > 10 | > 10
